Paper PMC3202988 (Nature chemical biology, 2011)

Target: T1, OGA (O-GlcNAcase) (Homo sapiens, UniProt O60502)
T1 sequence (O60502 1-916): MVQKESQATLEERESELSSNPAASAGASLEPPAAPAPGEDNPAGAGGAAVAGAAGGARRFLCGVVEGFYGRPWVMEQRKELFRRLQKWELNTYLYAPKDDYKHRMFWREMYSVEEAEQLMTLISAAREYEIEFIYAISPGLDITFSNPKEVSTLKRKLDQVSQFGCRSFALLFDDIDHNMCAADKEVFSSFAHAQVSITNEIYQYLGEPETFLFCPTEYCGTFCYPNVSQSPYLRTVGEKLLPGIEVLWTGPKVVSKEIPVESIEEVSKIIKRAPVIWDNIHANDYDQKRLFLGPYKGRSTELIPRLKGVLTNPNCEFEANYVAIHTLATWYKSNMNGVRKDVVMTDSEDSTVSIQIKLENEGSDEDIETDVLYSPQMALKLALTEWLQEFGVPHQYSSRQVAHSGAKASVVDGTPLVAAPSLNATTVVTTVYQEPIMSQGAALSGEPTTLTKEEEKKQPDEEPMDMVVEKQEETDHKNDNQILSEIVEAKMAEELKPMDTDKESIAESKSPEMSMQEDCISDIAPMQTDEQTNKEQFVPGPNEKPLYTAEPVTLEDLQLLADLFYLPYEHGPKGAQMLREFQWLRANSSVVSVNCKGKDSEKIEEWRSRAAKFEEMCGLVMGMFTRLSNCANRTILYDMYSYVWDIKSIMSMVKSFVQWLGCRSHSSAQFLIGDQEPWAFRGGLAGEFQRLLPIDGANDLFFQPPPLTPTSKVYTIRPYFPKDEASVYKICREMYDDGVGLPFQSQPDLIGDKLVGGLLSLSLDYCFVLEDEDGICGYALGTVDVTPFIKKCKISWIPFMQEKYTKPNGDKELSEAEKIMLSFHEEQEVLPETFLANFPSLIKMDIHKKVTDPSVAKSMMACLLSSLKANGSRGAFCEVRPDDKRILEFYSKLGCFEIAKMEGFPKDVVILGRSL
Experiment: Michaelis-Menten hydrolysis kinetics, absorbance at […] nm
Type: biochemical

Row | Michaelis-Menten hydrolysis kinetics, absorbance at 296 nm [μmol s^−1 mg^−1 M^−1] | SMILES
1 | 8.1 | COc1ccc(O[C@@H]2S[C@H](CO)[C@@H](O)[C@H](O)[C@H]2NC(C)=O)cc1 [compound 7, para-methoxyphenyl 2-acetamido-2-deoxy-5-thio-β-D-glucopyranoside]
2 | 40.7 | COc1ccc(O[C@@H]2O[C@H](CO)[C@@H](O)[C@H](O)[C@H]2NC(C)=O)cc1 [compound 6, para-methoxyphenyl 2-acetamido-2-deoxy-β-D-glucopyranoside]
